Results: publication PMC8861095, “Neurotoxicological profile of the hallucinogenic compound 25I-NBOMe” (Scientific Reports, 2022)

Columns and labels:
[1] = system: BrdU+ cells and BrdU/NeuN+ neurons in the hippocampus; details: doses 0.1, 0.3, and 1 mg/kg; vs control rats; cited from earlier work
[2] = system: apoptosis; assay: TUNEL assay for apoptotic signal in brain slices; format: in vivo, rat; details: frontal cortex, anterior and posterior hippocampus; acute or chronic (× 7) 0.3 mg/kg; 72 h after treatment; qualitative
Experimental: (§1) Animals received single or multiple (once per day for seven days) subcutaneous injections of 25I-NBOMe dissolved in 0.9% NaCl at a dose of 0.3 mg/kg/2 ml. The control group was treated with 0.9% NaCl solution in the same way. All procedures were performed 72 h after the last injection. The time point of 72 h was chosen due to the possible generation of neurotoxicity via oxidative stress caused by reactive oxygen species (ROS). Exceptionally, for initial 25I-NBOMe brain distribution studies, rats received the drug in the dose of 1 and 10 mg/kg and were sacrificed 15 min after the drug administration. The rat blood plasma and brain tissues were collected immediately after rats’ decapitation. LSD (0.05 mg/kg, ip) was given daily for 7 days in a volume of 1 ml/kg, while MDMA 5 mg/kg, ip was injected in a volume of 2 ml/kg every second day (overall 4 injections).
As described above, animals were perfused transcardially and brains were fixed overnight in 4% PFA, then gradually dehydrated and stored in 70% ethanol (EtOH). Paraffin-embedded brain tissue was sectioned on a microtome (Leica, RM45) for 7-µm-thick sections. […] The apoptotic signal was assessed using Click-iT™ Plus TUNEL Assay for in situ apoptosis detection with Alexa Fluor™ 488 picolyl azide dye. […] Stained slides were examined under a fluorescence microscope (Nikon Eclipse50i, Japan) equipped with a camera and NIS Elements software.

[3] = system: NeuN-, S100β- and IBA-1-immunopositive cells; assay: Immunohistochemistry with stereological count of cortical and hippocampal cells; format: in vivo, rat; details: chronic 0.3 mg/kg × 7 sc, 72 h, vs control
Experimental: as §1
Animals were deeply anesthetized and transcardially perfused with 0.9% NaCl followed by 4% paraformaldehyde (PFA) in 0.1 M phosphate-buffered saline (PBS). After 24 h of fixation in 4% PFA (4 °C), 300 µm sections were cut through the frontal cortex (FC) and medial prefrontal cortex (mPFC) as well as hippocampus using a VT-1000S vibratome (Leica Microsystems, Heidelberg, Germany). Free-floating sections were processed for single staining of neurons with neuronal-specific nuclear protein (NeuN), glia with specific calcium-binding protein B (S100β), and microglia cells with ionized calcium-binding adaptor molecule 1 (IBA-1) antibodies. Subsequently, brain sections were rinsed and incubated for 1 h in a blocking buffer: 0.01 M PBS containing 0.3% Triton X-100 and 5% average horse, goat, or rabbit serum. After that, the sections were incubated for 48 h at 4 °C with one of the following primary antibodies: monoclonal anti-NeuN (1:1000), monoclonal anti-S100β-subunit (1:1000) or polyclonal IBA-1 (1:500) diluted in 0.01 M PBS containing 0.3% Triton X-100 (PBST) and 3% average horse or goat serum. Primary antibody binding was visualized with biotinylated secondary antibodies, the Avidin/Biotin Complex (Vectastain Elite ABC Kit) according to recommended by manufacturer concentration and 3,3′-diaminobenzidine tetrahydrochloride (DAB, 10 mg/50 ml and 0.025% H2O2) solution to give a brown color to NeuN, S100β and IBA-1-immunoreactive cells. For data presentation, digital images were captured using a digital camera CX 9000 (Bioscience Microbrightfield, Inc., Germany) attached to a Leica microscope (CTR 6000) with 2.5 and 5.0 dry or 63 × and 100 × oil objectives (Leica) that was controlled by Stereo Investigator software (v.8.10.2, 1995–2007 Bioscience Microbrightfield, Inc., Germany). The final photomicrographs were composed using the Adobe Photoshop program. The numbers of NeuN-, S100β- and IBA-1-immunopositive cells in the analyzed brain regions were estimated using unbiased stereological methods[35],[36]. Briefly, every sixth section from the systematic random sampling along the rostrocaudal axis was analyzed with a 63 ×/1.4–0.7 lens using the Stereo Investigator stereology system software. The cells appearing in the upper focal plane were omitted to prevent the counting of cell caps (− 5 μm of the topmost surface of the section). Immunopositive cells were marked when they were within the optical dissectors, which comprised a focal plane of 1600 μm^2 × 15 μm. The total numbers of NeuN, S100β- and IBA-1-immunopositive cells in the FC, mPFC, and hippocampus were automatically calculated by the Stereo Investigator software. In addition, the volume of the cortical regions and hippocampus was calculated using the Cavalieri Estimator option of the Stereo Investigator software.

[4] = medial prefrontal cortex (mPFC)

## COc1cc(CCNCc2ccccc2OC)c(OC)cc1I [25I-NBOMe, 4-Iodo-2,5-dimethoxy-N-(2-methoxybenzyl)phenethylamine]
[1]
  Number of surviving BrdU+ cells and BrdU/NeuN+ neurons in the hippocampus: significantly decreased
[2]
  Apoptotic signal (TUNEL): did not indicate apoptotic signal
[3]; frontal cortex (FC)
  Number of IBA-1-immunopositive cells (microglia): significantly decreased
  Number of NeuN cells (neurons): did not notice any significant change
  Number of S100β-immunopositive cells (astrocytes): significantly decreased
[3]; hippocampal regions CA1, CA3/CA2 and dentate gyrus
  Number of neuronal and glial cells: did not show any changes
[3]; [4]
  Number of NeuN cells (neurons): did not notice any significant change
  Number of S100β-immunopositive cells (astrocytes): significant decrease
